Experimental data reported in patent publication US20030065030A1, “Autonomic controlling agents and health drinks and foods” (priority 2001, published 2003).

Experiments:
Type in all cases: in vivo, rat
[1] = test system: DOCA-salt hypertensive rats; experiment: anti-hypertensive effect in DOCA-salt hypertensive rats (systolic blood pressure)
Experimental: Sprague-Dawley male rats (6-week old) were used. The animals were anesthetized by the intraperitoneal administration of pentobarbital at 40 mg/kg body weight, and the right flank was dissected to remove the right kidney. After the surgical operation and a one week recovery period, the animals were divided into the pseudosurgery (sham) group and the deoxycorticosterone acetate (DOCA) salt group. Each group was further divided into the normal diet group, the 0.001% carnosine-containing diet group, and the 0.0001% carnosine-containing group.
The rats of the DOCA-salt group received the subcutaneous injection of DOCA suspended in corn oil at 15 mg/kg body weight twice per week, and tap water supplemented with 1% sodium chloride was given as the drinking water. The sham group received neither DOCA nor sodium chloride. The systolic blood pressure was monitored once per week for five weeks using the tail cuff and the pneumatic pulse transducer (BP-98A, Softron). The experiment employed 9 rats in the DOCA group and 6 rats in the sham group. Data were tested with ANOVA (p<0.05) and were expressed as mean +/− standard error.

[2] = test system: sympathetic nerve adrenal branches; experiment: efferent neural activity of the sympathetic nerve adrenal branches after intravenous carnosine; conditions: 100 ng intravenous
Experimental: According to the method of Niijima (Neurobiology 3:299-307, 1995), the effect of carnosine on the autonomic nerve activity was investigated. Wistar male rats, weighing about 300 g, that had been kept in an environment of room temperature (24° C.) and free access to the feed were fasted (with free access to water) 12 hours before the start of the experiment. Rats were subjected to abdominal section under urethane anesthesia (1 g/kg body weight, intraperitoneal administration), neurofilaments were isolated from central cut ends of a sympathetic nerve branch or a vagal nerve branch, and the efferent neural activity was recorded via an AC amplifier. The neural activity was observed using an oscilloscope and was recorded into magnetic tape. At the same time, the time course of the neural activity was recorded with a pen-type recorder via a rate meter with a reset time set at 5 seconds.
Carnosine (100 ng or 1,000 ng dissolved in 0.1 ml physiological saline) was intravenously administered. As the control, physiological saline (0.1 ml) was alone administered intravenously.
The effect of carnosine administration was calculated as the neural activity count (%) after carnosine administration relative to neural activity count (mean value of 10 activity counts during 5 minutes) before administration set at 100. Five rats were used for each experiment. Data were tested with ANOVA (p<0.05) and were expressed as mean +/− standard error.

2DG hyperglycemic rats = experiment: anti-hyperglycemia in the 2DG hyperglycemic rats
Excerpt: Since blood glucose levels are expected to be reduced when the activity of the autonomic nervous system is controlled by carnosine at a low dose, the effect of carnosine on anti-hyperglycemia in the 2DG hyperglycemic rats was investigated according to the method of Chun et al. (Brain Research 809:165-174, 1998). Wistar male rats (initial weight, about 250 g) were used that had been acclimated for at least 10 days to an environment in a room illuminated with an incandescent light of 80 lux on the average for 12 hours at room temperature (24 +/− 1° C.) with free access to the feed.
Three days before the experiment, rats under anesthesia with pentobarbital (35 mg/kg body weight, intraperitoneal administration) received the insertion of a cardiac catheter comprising a silastic tubing (Dow Corning, Midland, Mich.) and a polyethylene tubing (Clay Adams, Parsippany, N.J.) into the right atrium and a polyethylene tubing into the right lateral cerebral ventricle (LCV). On the day of the experiment, carnosine dissolved in physiological saline was administered to the rats intracranially (0.01 ml) or intraperitoneally (0.1 ml) with the simultaneous administration into the rat LCV of 80 μmol 2-deoxy-D-glucose (2DG, 0.01 ml). The control rats received physiological saline instead of carnosine and an artificial cerebrospinal fluid in stead of 2DG, each at the same amount.
Sixty minutes after the administration of 2DG into the LCV, 300 μl of blood was taken via the cardiac catheter and the plasma level of glucose was determined. The glucose concentrations in the plasma were measured using the Fuji-Dri-chem system (Fuji Film Tokyo) according to the glucose oxidase method. Changes in plasma concentrations of glucose were expressed as a ratio (%) relative to the control value at 90 minutes after 2DG administration set at 100. Four or five rats were used in the experiments. Data were tested with ANOVA (p<0.05) and were expressed as mean +/− standard error.

STZ diabetic rats = experiment: anti-hyperglycemia in the STZ diabetic rats undergoing the oral glucose tolerance test
Experimental: Wistar male rats (initial weight, about 250 g) were used. They were housed in a room illuminated with an incandescent light of 80 luxes on the average for 12 hours with free access to feed, and adapted to the environment at least 10 days. Three days before the experiment, rats under anesthesia with pentobarbital (35 mg/kg body weight, intraperitoneal administration) received the insertion of a cardiac catheter comprising a silastic tubing (Dow Corning, Midland, Mich.) and a polyethylene tubing (Clay Adams, Parsippany, N.J.) into the right atrium and a polyethylene tubing into the right lateral cerebral ventricle (LCV).
Then, the STZ (streptozotocin) diabetic rats were created according to the report by Portha et al. (Diabetes 30:64-69, 1981). Streptozotocin (STZ, manufactured by Sigma) dissolved in 0.05 M citric acid solution (pH 4.5) at a concentration of […] was intraperitoneally administered at 60 mg/kg body weight. To the STZ diabetic rats thus created, an aqueous solution of glucose dissolved at 0.5 g/ml was orally administered at 1 ml (0.5 g) per animal (oral glucose load). Simultaneously with the glucose load, carnosine dissolved in physiological saline was administered to the rats intracranially (0.01 ml) or intraperitoneally (0.1 ml).
The oral administration employed a sonde, and the intracranially administration was performed via a LVC polyethylene tube and the intraperitoneal administration employed an injection syringe and a needle. The control rats received physiological saline instead of carnosine, and an artificial cerebrospinal fluid instead of 2DG, each at the same amount. Before and at 15, 30, 60, and 90 minutes after the oral administration of glucose, 300 μl of blood was taken via the cardiac catheter and the glucose concentrations in the plasma (blood glucose levels) were determined. The glucose concentration in the plasma at the time of carnosine administration was calculated as a ratio (%) relative to the plasma glucose concentration before glucose administration set at 100. Four or five rats were used in the experiment. Data were tested with ANOVA (p<0.05) and were expressed as mean +/− standard error.

## NCCC(=O)N[C@@H](Cc1cnc[nH]1)C(=O)O [carnosine, β-alanyl-L-histidine]
[1]; 0.0001% carnosine-containing diet, week five
  suppression rate of increase in systolic blood pressure: 17.8%
[1]; 0.0001% carnosine-containing diet, week four
  suppression rate of increase in systolic blood pressure: 22.1%
[1]; 0.0001% carnosine-containing diet, week one
  suppression rate of increase in systolic blood pressure: 9.6%
[1]; 0.0001% carnosine-containing diet, week three
  suppression rate of increase in systolic blood pressure: 15.0%
[1]; 0.0001% carnosine-containing diet, week two
  suppression rate of increase in systolic blood pressure: 10.2%
[1]; 0.001% carnosine-containing diet, week five
  suppression rate of increase in systolic blood pressure: 25.5%
[1]; 0.001% carnosine-containing diet, week four
  suppression rate of increase in systolic blood pressure: 21.5%
[1]; 0.001% carnosine-containing diet, week one
  suppression rate of increase in systolic blood pressure: 6.2%
[1]; 0.001% carnosine-containing diet, week three
  suppression rate of increase in systolic blood pressure: 19.6%
[1]; 0.001% carnosine-containing diet, week two
  suppression rate of increase in systolic blood pressure: 12.4%
[2]; 30 minutes after administration
  suppression rate of efferent neural activity of the sympathetic nerve adrenal branches: 31.3%
[2]; 60 minutes after administration
  suppression rate of efferent neural activity of the sympathetic nerve adrenal branches: 46.9%
[2]; 90 minutes after administration
  suppression rate of efferent neural activity of the sympathetic nerve adrenal branches: 58.1%
2DG hyperglycemic rats; 10 ng intracranially administered
  effect on hyperglycemia: suppressed hyperglycemia
2DG hyperglycemic rats; 10 ng intraperitoneal
  suppression rate of hyperglycemia (plasma glucose): 16.0%
2DG hyperglycemic rats; 100 ng intraperitoneal
  suppression rate of hyperglycemia (plasma glucose): 31.5%
2DG hyperglycemic rats; 1,000 ng intraperitoneal
  suppression rate of hyperglycemia (plasma glucose): 26.8%
2DG hyperglycemic rats; 10,000 ng intraperitoneal
  suppression rate of hyperglycemia (plasma glucose): 27.6%
2DG hyperglycemic rats; 100,000 ng intraperitoneal
  suppression rate of hyperglycemia (plasma glucose): 21.9%
2DG hyperglycemic rats; high dose of 1,000,000 ng (3.3 mg/kg body weight) intraperitoneal
  hypoglycemic action: did not show any hypoglycemic action
STZ diabetic rats; 10 ng intracranial, 15 minutes
  suppression rate of increase in blood glucose by oral glucose load: 14.5%
STZ diabetic rats; 10 ng intracranial, 30 minutes
  suppression rate of increase in blood glucose by oral glucose load: 17.3%
STZ diabetic rats; 10 ng intracranial, 60 minutes
  suppression rate of increase in blood glucose by oral glucose load: 14.7%
STZ diabetic rats; 10 ng intracranial, 90 minutes
  suppression rate of increase in blood glucose by oral glucose load: 11.4%
STZ diabetic rats; 100 ng intraperitoneal, 60 minutes
  suppression rate of increase in blood glucose by oral glucose load: 14.3%
STZ diabetic rats; 100 ng intraperitoneal, 90 minutes
  suppression rate of increase in blood glucose by oral glucose load: 12.4%
